Assay results from PubChem BioAssay (NCI).
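These data come from cells grown in 96-well plates and exposed to compound for 48 hours at five concentrations. Here, GI50 denotes the concentration required for 50% inhibition of growth. The concentration for full growth arrest is given as TGI.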

Assays:
Assay in all cases: growth of human tumour cells (NCI), 48 h
786-0 renal = test system: 786-0 renal
A549 NSCLC = test system: A549 NSCLC
ACHN renal = test system: ACHN renal
CAKI-1 renal = test system: CAKI-1 renal
COLO 205 colon = test system: COLO 205 colon
DU-145 prostate = test system: DU-145 prostate
EKVX NSCLC = test system: EKVX NSCLC
HCT-116 colon = test system: HCT-116 colon
HCT-15 colon = test system: HCT-15 colon
HL-60(TB) leukemia = test system: HL-60(TB) leukemia
HOP-62 NSCLC = test system: HOP-62 NSCLC
HS 578T breast = test system: HS 578T breast
HT29 colon = test system: HT29 colon
IGROV1 ovarian = test system: IGROV1 ovarian
K-562 leukemia = test system: K-562 leukemia
KM12 colon = test system: KM12 colon
LOX IMVI melanoma = test system: LOX IMVI melanoma
M14 melanoma = test system: M14 melanoma
MALME-3M melanoma = test system: MALME-3M melanoma
MCF7 breast = test system: MCF7 breast
MDA-MB-231 breast = test system: MDA-MB-231 breast
MDA-MB-435 = test system: MDA-MB-435
MOLT-4 leukemia = test system: MOLT-4 leukemia
NCI-H226 lung = test system: NCI-H226 lung
NCI-H23 lung = test system: NCI-H23 lung
NCI-H460 lung = test system: NCI-H460 lung
NCI-H522 lung = test system: NCI-H522 lung
NCI/ADR-RES ovarian = test system: NCI/ADR-RES ovarian
OVCAR-3 ovarian = test system: OVCAR-3 ovarian
OVCAR-4 ovarian = test system: OVCAR-4 ovarian
OVCAR-5 ovarian = test system: OVCAR-5 ovarian
OVCAR-8 ovarian = test system: OVCAR-8 ovarian
PC-3 prostate = test system: PC-3 prostate
RPMI-8226 leukemia = test system: RPMI-8226 leukemia
RXF 393 renal = test system: RXF 393 renal
SF-268 CNS = test system: SF-268 CNS
SF-295 CNS = test system: SF-295 CNS
SF-539 CNS = test system: SF-539 CNS
SK-MEL-2 melanoma = test system: SK-MEL-2 melanoma
SK-MEL-28 melanoma = test system: SK-MEL-28 melanoma
SK-MEL-5 melanoma = test system: SK-MEL-5 melanoma
SK-OV-3 ovarian = test system: SK-OV-3 ovarian
SN12C renal = test system: SN12C renal
SNB-19 CNS = test system: SNB-19 CNS
SNB-75 CNS = test system: SNB-75 CNS
SR leukemia = test system: SR leukemia
SW-620 colon = test system: SW-620 colon
T-47D breast = test system: T-47D breast
TK-10 renal = test system: TK-10 renal
U251 CNS = test system: U251 CNS
UACC-257 melanoma = test system: UACC-257 melanoma
UACC-62 melanoma = test system: UACC-62 melanoma
UO-31 renal = test system: UO-31 renal
A498 renal = test system: A498 renal
HCC-2998 colon = test system: HCC-2998 colon
HOP-92 NSCLC = test system: HOP-92 NSCLC

`C/C(=C\COP(=O)(O)OP(=O)(O)O)CCCOCc1ccccc1` was tested, and the TGI (786-0 renal) was > 100 µM, the TGI (A549 NSCLC) was > 100 µM and the TGI (ACHN renal) was > 100 µM. The TGI (CAKI-1 renal) was > 100 µM, the TGI (COLO 205 colon) was > 100 µM and the TGI (DU-145 prostate) was > 100 µM. For the same compound, the TGI (EKVX NSCLC) was > 100 µM, the TGI (HCT-116 colon) was > 100 µM and the TGI (HCT-15 colon) was > 100 µM. For the same compound, the TGI (HL-60(TB) leukemia) was > 100 µM, the TGI (HOP-62 NSCLC) was > 100 µM and the TGI (HS 578T breast) was > 100 µM. For the same compound, the TGI (HT29 colon) was > 100 µM, the TGI (IGROV1 ovarian) was > 100 µM and the TGI (K-562 leukemia) was > 100 µM. The TGI (KM12 colon) was > 100 µM, the TGI (LOX IMVI melanoma) was > 100 µM and the TGI (M14 melanoma) was > 100 µM. The TGI (MALME-3M melanoma) was > 100 µM, the TGI (MCF7 breast) was > 100 µM and the TGI (MDA-MB-231 breast) was > 100 µM. For the same compound, the TGI (MDA-MB-435) was > 100 µM, the TGI (MOLT-4 leukemia) was > 100 µM and the TGI (NCI-H226 lung) was > 100 µM. The TGI (NCI-H23 lung) was > 100 µM, the TGI (NCI-H460 lung) was > 100 µM and the TGI (NCI-H522 lung) was > 100 µM. For the same compound, the TGI (NCI/ADR-RES ovarian) was > 100 µM, the TGI (OVCAR-3 ovarian) was > 100 µM and the TGI (OVCAR-4 ovarian) was > 100 µM. The TGI (OVCAR-5 ovarian) was > 100 µM, the TGI (OVCAR-8 ovarian) was > 100 µM and the TGI (PC-3 prostate) was > 100 µM. The TGI (RPMI-8226 leukemia) was > 100 µM, the TGI (RXF 393 renal) was > 100 µM and the TGI (SF-268 CNS) was > 100 µM. For the same compound, the TGI (SF-295 CNS) was > 100 µM, the TGI (SF-539 CNS) was > 100 µM and the TGI (SK-MEL-2 melanoma) was > 100 µM. The TGI (SK-MEL-28 melanoma) was > 100 µM, the TGI (SK-MEL-5 melanoma) was > 100 µM and the TGI (SK-OV-3 ovarian) was > 100 µM. For the same compound, the TGI (SN12C renal) was > 100 µM, the TGI (SNB-19 CNS) was > 100 µM and the TGI (SNB-75 CNS) was > 100 µM. The TGI (SR leukemia) was > 100 µM, the TGI (SW-620 colon) was > 100 µM and the TGI (T-47D breast) was > 100 µM. For the same compound, the TGI (TK-10 renal) was > 100 µM, the TGI (U251 CNS) was > 100 µM and the TGI (UACC-257 melanoma) was > 100 µM. The TGI (UACC-62 melanoma) was > 100 µM and the TGI (UO-31 renal) was > 100 µM.
Work on `O=C(Nc1ccc(Cl)cc1)Nc1ccc(Cl)c(C(F)(F)F)c1` yielded a GI50 (786-0 renal) of 2.75 µM, a TGI (786-0 renal) of 10.7 µM and a GI50 (A498 renal) of 2.38 µM. For the same compound, the TGI (A498 renal) was 6.26 µM, the GI50 (A549 NSCLC) was 3.39 µM and the TGI (A549 NSCLC) was 15.8 µM. It also gave a GI50 (ACHN renal) of 3.04 µM, a TGI (ACHN renal) of 12.1 µM and a GI50 (CAKI-1 renal) of 2.27 µM. For the same compound, the TGI (CAKI-1 renal) was 8.84 µM, the GI50 (COLO 205 colon) was 1.63 µM and the TGI (COLO 205 colon) was 3.01 µM. It also gave a GI50 (DU-145 prostate) of 3.66 µM, a TGI (DU-145 prostate) of 12.4 µM and a GI50 (EKVX NSCLC) of 2.48 µM. The TGI (EKVX NSCLC) was 11 µM, the GI50 (HCC-2998 colon) was 3.12 µM and the TGI (HCC-2998 colon) was 8.81 µM. For the same compound, the GI50 (HCT-116 colon) was 1.95 µM, the TGI (HCT-116 colon) was 5.33 µM and the GI50 (HCT-15 colon) was 2.65 µM. For the same compound, the TGI (HCT-15 colon) was 11.6 µM, the GI50 (HL-60(TB) leukemia) was 1.74 µM and the TGI (HL-60(TB) leukemia) was 3.91 µM. For the same compound, the GI50 (HOP-62 NSCLC) was 3 µM, the TGI (HOP-62 NSCLC) was 11.3 µM and the GI50 (HOP-92 NSCLC) was 1.55 µM. It also gave a TGI (HOP-92 NSCLC) of 5.03 µM, a GI50 (HS 578T breast) of 2.68 µM and a TGI (HS 578T breast) of 8.31 µM. The GI50 (HT29 colon) was 2.86 µM, the TGI (HT29 colon) was 10.7 µM and the GI50 (IGROV1 ovarian) was 4.01 µM. For the same compound, the TGI (IGROV1 ovarian) was 16.2 µM, the GI50 (K-562 leukemia) was 1.06 µM and the TGI (K-562 leukemia) was 2.95 µM. It also gave a GI50 (KM12 colon) of 2.21 µM, a TGI (KM12 colon) of 6.56 µM and a GI50 (LOX IMVI melanoma) of 3.31 µM. It also gave a TGI (LOX IMVI melanoma) of 11.6 µM, a GI50 (M14 melanoma) of 3.59 µM and a TGI (M14 melanoma) of 12.3 µM. The GI50 (MCF7 breast) was 2.16 µM, the TGI (MCF7 breast) was 7.85 µM and the GI50 (MDA-MB-231 breast) was 1.75 µM. For the same compound, the TGI (MDA-MB-231 breast) was 3.91 µM, the GI50 (MDA-MB-435) was 2.45 µM and the TGI (MDA-MB-435) was 8.13 µM. For the same compound, the GI50 (MOLT-4 leukemia) was 1.72 µM, the TGI (MOLT-4 leukemia) was 4.4 µM and the GI50 (NCI-H23 lung) was 2.21 µM. It also gave a TGI (NCI-H23 lung) of 11 µM, a GI50 (NCI-H460 lung) of 1.7 µM and a TGI (NCI-H460 lung) of 6.44 µM. For the same compound, the GI50 (NCI-H522 lung) was 4.05 µM, the TGI (NCI-H522 lung) was 29.1 µM and the GI50 (NCI/ADR-RES ovarian) was 3.07 µM. The TGI (NCI/ADR-RES ovarian) was 10.5 µM, the GI50 (OVCAR-3 ovarian) was 1.86 µM and the TGI (OVCAR-3 ovarian) was 7.76 µM. For the same compound, the GI50 (OVCAR-4 ovarian) was 2.33 µM, the TGI (OVCAR-4 ovarian) was 11.4 µM and the GI50 (OVCAR-5 ovarian) was 4.52 µM. It also gave a TGI (OVCAR-5 ovarian) of 14.9 µM, a GI50 (OVCAR-8 ovarian) of 4.04 µM and a TGI (OVCAR-8 ovarian) of 18.8 µM. For the same compound, the GI50 (PC-3 prostate) was 2.35 µM, the TGI (PC-3 prostate) was 10.8 µM and the GI50 (SF-268 CNS) was 3.54 µM. The TGI (SF-268 CNS) was 12.2 µM, the GI50 (SF-295 CNS) was 1.97 µM and the TGI (SF-295 CNS) was 8.87 µM. It also gave a GI50 (SF-539 CNS) of 2.61 µM, a TGI (SF-539 CNS) of 10.1 µM and a GI50 (SK-MEL-2 melanoma) of 3.25 µM. The TGI (SK-MEL-2 melanoma) was 10 µM, the GI50 (SK-MEL-28 melanoma) was 3.51 µM and the TGI (SK-MEL-28 melanoma) was 11.9 µM. The GI50 (SK-MEL-5 melanoma) was 1.55 µM, the TGI (SK-MEL-5 melanoma) was 2.99 µM and the GI50 (SK-OV-3 ovarian) was 2.37 µM. The TGI (SK-OV-3 ovarian) was 6.8 µM, the GI50 (SN12C renal) was 2.29 µM and the TGI (SN12C renal) was 10.5 µM. It also gave a GI50 (SNB-19 CNS) of 3.21 µM, a TGI (SNB-19 CNS) of 12.6 µM and a GI50 (SNB-75 CNS) of 1.97 µM. It also gave a TGI (SNB-75 CNS) of 7.73 µM, a GI50 (SW-620 colon) of 2.93 µM and a TGI (SW-620 colon) of 9.66 µM. It also gave a GI50 (T-47D breast) of 1.22 µM, a TGI (T-47D breast) of 5.49 µM and a GI50 (TK-10 renal) of 4.25 µM. For the same compound, the TGI (TK-10 renal) was 19.2 µM, the GI50 (U251 CNS) was 2.8 µM and the TGI (U251 CNS) was 11.4 µM. The GI50 (UACC-257 melanoma) was 3.44 µM, the TGI (UACC-257 melanoma) was 11.8 µM and the GI50 (UACC-62 melanoma) was 2.71 µM. For the same compound, the TGI (UACC-62 melanoma) was 14.7 µM, the GI50 (UO-31 renal) was 2.54 µM and the TGI (UO-31 renal) was 10.2 µM.
